The record followed here is article PMC7615343, “Fluorination Influences the Bioisostery of Myo-Inositol Pyrophosphate Analogs” (Chemistry (Weinheim an der Bergstrasse, Germany), 2023).

The series can be described thus: Anion-exchange HPLC of [33P]-labeled products of PPIP5K2-mediated phosphorylation (relative polarity). As to conditions: PartiSphere SAX column, NH4H2PO4 gradient pH 4.0; elution order 5PA-IP5 < 5PCF2Am-IP5 < 5PCP-IP5 < 5PCF2P-IP5 < 5PP-IP5. It is filed as physicochemical. The text has this:
Lastly, we also developed a protocol by which we can infer the relative polarities of each of the analogs. […] As shown above, 5PA-IP5 and the other analogs each bind in potentially productive orientations in which the 1-phosphate is presented to the active site. Therefore, we attempted to radiolabel each of the analogs by incorporation of [33]Pi from [33]P-γ-ATP, with the objective of resolving each of the [33]P-labeled products by anion-exchange HPLC. We reasoned that this assay could provide an empirical comparison of the relative degree of acidity of each reaction product - and more instructively - the substrates themselves. It should be emphasized that this experiment cannot inform on the relative rates of phosphorylation, in large part because the experimental protocol (low mass levels of high-specific radioactivity of [33]P-γ-ATP) are not appropriate for biologically-relevant kinetic determinations.
Figure 6 HPLC analysis of the products of PPIP5K-mediated phosphorylation of 5PP-IP5 and the various analogs. […]
Kinase activity was studied at 37°C by incubating 700 ng PPIP5K2^1-366 separately with each individual 10 μM test compound and 50 μM ATP plus 60,000 CPM of [^33P-γ]ATP for 30 mins. Assays were quenched with 0.2 volumes of 2 M perchloric acid, neutralized, and [^33P]-labeled products were analyzed by ion-exchange HPLC, using a 4.6 × 125 mm, 5 μm PartiSphere SAX column. […]

Regarding `O=P(O)(O)O[C@H]1[C@@H](OP(=O)(O)O)[C@H](OP(=O)(O)O)[C@@H](OP(=O)(O)C(F)(F)P(=O)(O)O)[C@H](OP(=O)(O)O)[C@H]1OP(=O)(O)O` [5PCF2P-IP5], the “Relative HPLC elution of phosphorylated product (protonation state / global polarity compared with 5PP-IP5)” value is recorded as “most closely resembles the natural molecule with regards to its protonation state”.
